The values that follow come from US12365670B2, “GLP-IR agonists and uses thereof” (QILU REGOR THERAPEUTICS INC., priority 2018, dated 2025).

Series [1] is described as follows: Monkey oral pharmacokinetic (PK) study. In kind it is in vivo, Cynomolgus monkeys (Macaca fascicularis). The conditions noted are these: for plasma concentration-time profile: PO, over about 24 hours after oral dosing, FIGS. 8A-8E; for AUC0-24 h (Arbitrary units) / Cmax (Arbitrary unit): oral. The procedure: Appropriate volumes of vehicles (e.g., 2% Tween 80 (v:v) and 0.5% MC (w:v) in saline or 0.5% MC (w:v) in water were then added into the mortar containing the ground compounds, and the mixture was then grinded with a pestle until a homogeneous paste was formed. Additional appropriate volumes of vehicles were added into the mortar containing each compound, and the mixture was grinded further with the pestle until a homogeneous suspension was obtained.
The suspension was then transferred into a glass bottle. The mortar and the pestle were rinsed with the vehicle until no compound was left in the mortar or on the pestle.
The rest of the vehicle was added to make up the final dosing volume of about 1 mg/mL or 2 mg/mL (i.e., final dosing volume of about 5 mL/kg), and the homogenous suspension was continuously stirred prior to and during the dosing.
Non-nave Cynomolgus male monkeys (n=3/test article; sourced from Hainan Jingang Biotech Co., Ltd., Nayang Xintan, Fucheng Town, Qiongshan District, Haikou City, Hainan Province, China); or non-naïve aged, obese, and diabetic male Macaca fascicularis monkeys (n=3/test article, Source: Kunming Biomed International Colony) were used in pre-clinical in vivo studies. All non-nave Cynomolgus male monkeys were approximately 3 to 5 years old, weighed about 2.5-5 kg, and were within ±20% of the average body weight. All non-nave aged, obese, and diabetic male Macaca fascicularis monkeys were approximately 12 to 20 years old, weighed about >8-12 kg.
All animals were fasted overnight before dosing, and the food were supplied approximately 4 hours post dose (with free access to water all the time).
Animals were restrained at designated time points for blood sampling. Approximately 500 μL of blood samples was taken via cephalic or saphenous vein into EDTA-K2 tubes. Blood samples were put on wet ice before centrifugation.
For oral administration (PO) of either Dose 1 or Dose 2: blood samples were collected at pre-dose, and at 15 min, 30 min, 1 hr, 2 hr, 4 hr, (6 hr for compounds 19 and 28 with cynomolgus monkeys only), 8 hr, 12 hr, and 24 hr post dose (i.e., 9 or 10 total time points for each compound at each dose).
The blood samples were centrifuged at approximately 2,000-4,000 rpm for about 10-15 minutes at 2-8° C., and each resulting plasma portion was then transferred into an individual tube.
LC-MS/MS methods were developed, and bioanalysis for the test articles in monkey plasma was performed according to the developed LC-MS/MS methods.
Undiluted plasma samples: An aliquot of 20-50 μL plasma sample was mixed with 200 μL of ACN or MeOH containing one of the internal standards (IS, e.g., Diclofenac or Terfenadine) The mixture was then vortexed for about 1-5 min, and centrifuged at about 4,000-5,800 rpm for about 10-15 min. An aliquot of 1 μL supernatant was used for LC-MS/MS analysis.
Plasma samples with 10-fold dilution: An aliquot of 2 μL plasma sample was first mixed with 18 μL of blank plasma, then 200 μL of ACN containing 100 ng/mL IS (e.g. Diclofenac) was added to the mixture. The mixture was then vortexed for about 10 min, and was centrifuged at about 5,800 rpm for about 10 min. An aliquot of 1 μL supernatant was used for LC-MS/MS analysis.
MS conditions: Positive ion, ESI, MRM detection with parent and daughter ions, internal standard Diclofenac. • Compound ID: Compounds 19, 28, 29, 225 or 418 (control) HPLC conditions Method 1: • Mobile Phase A: H2O-0.025% FA-1 mM NH4OAC • Mobile Phase B: MeOH-0.025% FA-1 mM NH4OAC
Pharmacokinetics parameters, including area under the curve (AUC0-t), maximum plasma concentration (Cmax), time to reach maximum plasma concentration (Tmax), oral bioavailability (F %), etc., were calculated using Phoenix software (Version 6.4) and non-compartment model.

The target of series [2] is T1, GLP1R (Homo sapiens, UniProt P43220). The experiment in a line: β-Arrestin-mediated GLP1R internalization assay (PathHunter engineered U2OS cells). In kind it is cell-based. Also on record: host or cells: PathHunter engineered U2OS cells. The conditions noted are these: averaged Bmax, Percentage of Control GLP-1 (7-37), top concentration 10 μM. An excerpt:
A similar assay can also be used to assess the extent of signal attenuation due to GLP-1R internalization (the β-Arrestin Internalization Assay). In this assay, activated GLP1R Internalization cells were engineered to co-express an untagged GLP1R, Enzyme Acceptor (EA) tagged β-Arrestin, and a ProLink™ (PK) tag localized to the endosomes. Activation of the GLP1R induces β-Arrestin recruitment, which leads to internalization of the Receptor/Arrestin-EA complex in PK-tagged endosomes. This forces complementation of the two β-galactosidase enzyme fragments (EA and PK) to form a functional enzyme that hydrolyzes substrate to generate a chemiluminescent signal. […]
Specifically, PathHunter engineered U2OS cells from the assay kit (Cat #93-0724E3CP0L) were plated at a density of 2000 cells/20 μL/well in a 384-well white/clear bottom plates (Greiner Cat #781098). […] Cells were stored in a 37° C. incubator and kept for approximately 48 hours until ready for the assay. […]
Following 180 min incubation, detection reagents were made up by combining 1 part Galacton Star Substrate with 5 parts Emerald II™ Solution, and 19 parts of PathHunter Cell Assay Buffer, respectively. […] Plates were then read on Envision for 0.1 sec/well.
EC50 determinations were made from agonist dose-response curves analyzed with a curve fitting program using a 4-parameter logistic dose response equation.

The target of series [3] is T1, GLP1R. The experiment in a line: GLP-1R/β-Arrestin recruitment assay (PathHunter eXpress GLP1R CHO-K1 β-Arrestin GPCR Assay). In kind it is cell-based. Also on record: host or cells: PathHunter CHO-K1 GLP1R β-Arrestin cells (from the kit). The conditions noted are these: averaged Bmax, Percentage of Control GLP-1 (7-37), top concentration 10 μM. From the text:
GLP-1R agonist activity with respect to β-arrestin recruitment can be determined with a cell-based functional assay using PathHunter eXpress GLP1R CHO-K1 β-Arrestin GPCR Assay kit (DiscoverX Cat #93-0300E2CPOM).
The PathHunter β-Arrestin GPCR assay technology utilizes a β-galactosidase ([…]) enzyme that is split into two fragments, the smaller Enzyme Donor (ED) and the larger Enzyme Acceptor (EA). These fragments can be fused to two proteins that may interact with each other, such as EA-β-Arrestin and ED-GLP-1R. The fusions can be stably expressed in a test cell line, such as the PathHunter CHO-K1 GLP1R β-Arrestin cells described below. […]
In this experiment, PathHunter CHO-K1 GLP1R β-Arrestin cells from the assay kit were plated at a density of 1000 or 2000 cells/[…]/well in a 384-well white/clear bottom plates (Greiner Cat #781098). […] Cells were stored in a 37° C. incubator under 5% CO2 and kept for approximately 48 hours until ready to run the assay. […]
Following 90 min incubation, detection reagents were made up by combining 1 part Galacton Star Substrate with 5 parts Emerald II™ Solution, and 19 parts of PathHunter Cell Assay Buffer, respectively. […] Plates were then read on Envision for 0.1 sec/well.
EC50 determinations were made from agonist dose-response curves analyzed with a curve fitting program using a 4-parameter logistic dose response equation. […]

The mark [4] stands for this setting: Dose 1, non-naive Cynomolgus male monkeys.

T1 sequence (P43220 24-463): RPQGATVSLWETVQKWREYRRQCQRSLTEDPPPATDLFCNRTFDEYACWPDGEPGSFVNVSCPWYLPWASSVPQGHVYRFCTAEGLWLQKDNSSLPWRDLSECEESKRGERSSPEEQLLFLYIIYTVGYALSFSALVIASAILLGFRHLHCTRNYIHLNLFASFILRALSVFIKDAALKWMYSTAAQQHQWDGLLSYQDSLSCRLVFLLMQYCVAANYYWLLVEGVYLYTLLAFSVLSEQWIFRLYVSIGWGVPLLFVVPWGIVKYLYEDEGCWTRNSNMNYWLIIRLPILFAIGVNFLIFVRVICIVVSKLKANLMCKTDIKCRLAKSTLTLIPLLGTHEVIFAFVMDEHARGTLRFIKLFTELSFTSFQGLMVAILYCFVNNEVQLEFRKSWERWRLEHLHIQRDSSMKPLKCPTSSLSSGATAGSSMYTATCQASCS

Regarding `O=C(O)c1ccc2nc(CN3CC=C(c4cccc(OCc5ccc(Cl)cc5F)c4)CC3)n(C[C@@H]3CCO3)c2c1` [Compound 28, (S)-2-((4-(3-((4-chloro-2-fluorobenzyl)oxy)phenyl)-3,6-dihydropyridin-1(2H)-yl)methyl)-1-(oxetan-2-ylmethyl)-1 h-benzo[d]imidazole-6-carboxylic acid], the plasma concentration-time profile entry in series [1] is “sustained at a more constant level”. In series [1] (setting [4]), the “AUC0-24 h (Arbitrary units)” value is 24900 Arbitrary units and the “Cmax (Arbitrary unit)” value was determined as 3910 Arbitrary unit.
`O=C(O)c1ccc2nc(CN3CC=C(c4ccc(F)c(OCc5ccc(Cl)cc5F)c4)CC3)n(C[C@@H]3CCO3)c2n1` [Compound 236, (S)-2-((4-(3-((4-chloro-2-fluorobenzyl)oxy)-4-fluorophenyl)-5,6-dihydropyridin-1(2H)-yl)methyl)-3-(oxetan-2-ylmethyl)-3H-imidazo[4,5-b]pyridine-5-carboxylic acid]: the “Bmax (POC)” value at GLP1R [2] amounted to 30.0 POC.
Consider `N#Cc1ccc(COc2cccc(C3CCN(Cc4nc5ccc(C(=O)O)cc5n4C[C@@H]4CCO4)CC3)n2)c(F)c1` [Compound 418, reference compound], for which, in series [1] (Dose 2, monkeys), the “AUC0-24 h (Arbitrary units)” value turned out to be 774 Arbitrary units and the “Cmax (Arbitrary unit)” value is listed as 232 Arbitrary unit. In series [1] (over about 24 hours post oral dosing, Dose 2, FIG. 8F), the “drop in plasma concentration” value was “about 10 fold”.
On to `O=C(O)c1ccc2nc(CN3CCN(c4cccc(NCc5ccc(Cl)cc5F)n4)CC3)n(C[C@@H]3CCO3)c2c1` [Compound 1, (S)-2-((4-(6-(4-chloro-2-fluorobenzylamino)pyridin-2-yl)piperazin-1-yl)methyl)-1-(oxetan-2-ylmethyl)-1 h-benzo[d]imidazole-6-carboxylic acid], for which the “Bmax (POC)” value on GLP1R [3] stood at 2.80 POC.
On to `O=C(O)c1ccc2nc(CN3CC=C(c4ccc(F)c(OCc5ccc(Cl)cc5F)c4)CC3)n(C[C@@H]3CCO3)c2c1` [Compound 29, (S)-2-((4-(3-((4-chloro-2-fluorobenzyl)oxy)-4-fluorophenyl)-3,6-dihydropyridin-1(2H)-yl)methyl)-1-(oxetan-2-ylmethyl)-1 h-benzo[d]imidazole-6-carboxylic acid], for which the plasma concentration-time profile result in series [1] is “sustained at a more constant level”. In series [1] (Dose 2, monkeys), the “AUC0-24 h (Arbitrary units)” value is recorded as 21800 Arbitrary units and the “Cmax (Arbitrary unit)” value worked out at 3380 Arbitrary unit.
For `N#Cc1ccc(COc2cccc(C3=CCN(Cc4nc5ccc(C(=O)O)cc5n4C[C@@H]4CCO4)CC3)n2)c(F)c1` [Compound 19, (S)-2-((4-(6-(4-cyano-2-fluorobenzyloxy)pyridin-2-yl)-5,6-dihydropyridin-1(2H)-yl)methyl)-1-(oxetan-2-ylmethyl)-1 h-benzo[d]imidazole-6-carboxylic acid], the plasma concentration-time profile entry in series [1] is listed as “sustained at a more constant level”. Moreover, in series [1] (setting [4]), the “AUC0-24 h (Arbitrary units)” value came to 1130 Arbitrary units and the “Cmax (Arbitrary unit)” value was 125 Arbitrary unit.
For the compound `N#Cc1ccc(COc2cccc(C3=CCN(Cc4nc5ccc(C(=O)O)nc5n4C[C@@H]4CCO4)CC3)n2)c(F)c1` [Compound 225, (S)-2-((6-((4-cyano-2-fluorobenzyl)oxy)-3′,6′-dihydro-[2,4′-bipyridin]-1′(2′H)-yl)methyl)-3-(oxetan-2-ylmethyl)-3H-imidazo[4,5-b]pyridine-5-carboxylic acid], in series [1], the plasma concentration-time profile entry is listed as “sustained at a more constant level”. In series [1] (Dose 2, monkeys), the “AUC0-24 h (Arbitrary units)” value is recorded as 1500 Arbitrary units and the “Cmax (Arbitrary unit)” value was found to be 184 Arbitrary unit.
